Data taken from patent US20010053350A1, “Cosmetic composition comprising N-ethyloxycarbonyl-4-amino-phenol and arbutin or its derivatives and/or ellagic acid or its derivatives” (L'OREAL, priority 1999, published 2001).
In brackets after ≈: the same amount, converted by molar mass.

How the values were obtained:
fungal tyrosinase = test: Inhibition of the activity of fungal tyrosinase in vitro (absorbance at 475 nm, L-tyrosine/L-dopa); assay type: biochemical; settings: for molar concentration at which an inhibition figure of 25% was observed: fungal tyrosinase, phosphate buffer, solvent ethanol (C1), water (C2)
Procedure: This test consisted in measuring the absorbance (optical density OD) at 475 nm, as a function of time, for each of the following active depigmenting principles:
N-ethyloxycarbonyl-4-para-aminophenol arbutin in solution (at different concentrations) in an appropriate solvent in the presence of a phosphate buffer, 1 ml of L-tyrosine at 2.0×10^−3 M in a phosphate buffer, 0.1 ml of L-dopa at 1.0×10^−4 M in a phosphate buffer and 50 μl of 1 g/l fungal tyrosinase solution in a phosphate buffer, compared with a control consisting of the solvent used, at the same concentration in the phosphate buffer. Percentage inhibition was subsequently determined by the following equation: [formula]
Subsequently, N-ethyloxycarbonyl-4-para-aminophenol and arbutin were mixed in concentrations C1 and C2 and N-ethyloxycarbonyl-4-para-aminophenol and ellagic acid were mixed in respective concentrations C1 and C3.

[1] = Upper solubility limit in the test solvent (DMSO); assay type: physicochemical; settings: organic solvent or mixture

Molecule | molar concentration at which an inhibition figure of 25% was observed (fungal tyrosinase) | solubility [1] | inhibitory effect on tyrosinase activity (fungal tyrosinase; at concentration C3=1.35×10^−4 M (solubility limit in DMSO))
CC(C)CCC[C@@H](C)[C@H]1CC[C@H]2[C@@H]3CC=C4C[C@@H](OC(=O)Nc5ccc(O)cc5)CC[C@]4(C)[C@H]3CC[C@]12C [N-cholesteryloxycarbonyl-4-para-aminophenol] | 66.7 µM | – | –
CCOC(=O)Nc1ccc(O)cc1 [N-ethyloxycarbonyl-4-para-aminophenol] | 125 µM | – | –
O=c1oc2c(O)c(O)cc3c(=O)oc4c(O)c(O)cc1c4c23 [ellagic acid] | – | 135 µM (≈ 40.8 µg/mL) | no inhibitory effect
Oc1ccc(O)cc1 [hydroquinone] | 80 µM | – | –
arbutin | 333 µM | – | –
